According to US20050048508A1, “Trehalose receptor and method for detecting trehalose with the same” (KABUSHIKI KAISHA HAYASHIBARA SEIBUTSU KAGAKU KENKYUJO, priority 2002, published 2005):

Target: T1, T1R2 and T1R3 with G protein α-subunits (α15 and α16/Z chimeric protein) (Mus musculus, UniProt Q925D8+Q925I4, E350G/G527D/I706N/P352R/R175Q)
T1 construct: expressed in transfected cells; host or cells: 293 cells, RCB 1637 (human embryonic kidney)
T1 sequence (Q925I4 20-843 R175Q/E350G/P352R/G527D): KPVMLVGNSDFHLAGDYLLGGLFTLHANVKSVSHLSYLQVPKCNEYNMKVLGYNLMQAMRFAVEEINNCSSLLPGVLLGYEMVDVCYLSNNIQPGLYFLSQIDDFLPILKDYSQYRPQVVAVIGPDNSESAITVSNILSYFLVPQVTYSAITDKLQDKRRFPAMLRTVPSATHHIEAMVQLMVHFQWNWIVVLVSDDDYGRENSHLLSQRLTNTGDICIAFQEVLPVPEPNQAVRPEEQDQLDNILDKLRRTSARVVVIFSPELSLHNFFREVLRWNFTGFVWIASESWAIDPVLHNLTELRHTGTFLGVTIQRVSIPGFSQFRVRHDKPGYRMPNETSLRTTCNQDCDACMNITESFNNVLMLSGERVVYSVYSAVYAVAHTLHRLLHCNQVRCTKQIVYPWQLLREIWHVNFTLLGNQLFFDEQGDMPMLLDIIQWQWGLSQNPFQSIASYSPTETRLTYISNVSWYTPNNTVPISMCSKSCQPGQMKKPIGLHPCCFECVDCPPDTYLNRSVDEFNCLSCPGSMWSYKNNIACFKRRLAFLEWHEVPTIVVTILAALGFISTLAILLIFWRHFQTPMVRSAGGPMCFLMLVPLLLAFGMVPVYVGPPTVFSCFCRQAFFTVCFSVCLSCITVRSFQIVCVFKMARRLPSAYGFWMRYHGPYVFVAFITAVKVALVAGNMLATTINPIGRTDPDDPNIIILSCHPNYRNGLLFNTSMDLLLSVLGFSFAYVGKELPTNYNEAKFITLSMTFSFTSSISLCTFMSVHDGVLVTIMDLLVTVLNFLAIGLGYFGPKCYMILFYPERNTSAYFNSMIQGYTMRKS
T1 sequence (Q925D8 21-858 I706N): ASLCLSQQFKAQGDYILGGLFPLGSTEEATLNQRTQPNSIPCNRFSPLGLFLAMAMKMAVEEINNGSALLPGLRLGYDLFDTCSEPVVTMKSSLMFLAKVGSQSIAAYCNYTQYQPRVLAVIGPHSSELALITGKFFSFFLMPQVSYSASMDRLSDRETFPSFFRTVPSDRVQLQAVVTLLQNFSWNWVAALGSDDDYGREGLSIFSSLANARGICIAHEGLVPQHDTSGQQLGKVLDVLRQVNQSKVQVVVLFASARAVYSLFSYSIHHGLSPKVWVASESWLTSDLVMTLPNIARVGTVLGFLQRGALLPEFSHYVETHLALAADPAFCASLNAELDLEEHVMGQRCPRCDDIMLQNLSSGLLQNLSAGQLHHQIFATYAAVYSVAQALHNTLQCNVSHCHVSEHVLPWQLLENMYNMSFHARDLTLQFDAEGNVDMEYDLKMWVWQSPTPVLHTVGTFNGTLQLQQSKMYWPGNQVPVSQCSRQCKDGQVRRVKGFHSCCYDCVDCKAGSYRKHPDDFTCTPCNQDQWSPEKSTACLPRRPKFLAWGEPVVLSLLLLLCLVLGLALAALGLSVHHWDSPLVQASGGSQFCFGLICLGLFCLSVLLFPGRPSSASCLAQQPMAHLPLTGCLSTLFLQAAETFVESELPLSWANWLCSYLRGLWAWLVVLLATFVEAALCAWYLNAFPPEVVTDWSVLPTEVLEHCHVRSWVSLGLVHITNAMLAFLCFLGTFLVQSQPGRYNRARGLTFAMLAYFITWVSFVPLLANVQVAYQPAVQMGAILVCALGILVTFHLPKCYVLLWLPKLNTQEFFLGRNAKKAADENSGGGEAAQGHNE
Assay: Intracellular calcium ion assay, 293 cells coexpressing G protein α-subunits, T1R2 and T1R3
Type: cell-based
Conditions: 293 cells: T1R2 + T1R3 + G protein α-subunits, 0.67 ml of 1 M saccharide solution added to 2 ml cell suspension, FLUO-4 AM
Method: The coexpression vector for the G protein α-subunit α15 and the G protein α16/Z chimeric protein (hereinafter designated as “G protein α-subunits”) obtained in Example 1-3 was gene transferred to 293 cells, RCB 1637, a human embryonic kidney cell line, available from the Riken Bioresource Center, Ibaraki, Japan, by conventional lipofection. The gene transferred cells were suspended in Dulbecco's Modified Eagle's Medium (D-MEM) supplemented with 1 mg/L of “PUROMYCIN”, a trade mane of puromycin commercialized by Edge Biosystems, MD, USA, and 10% (v/v) of fetal calf serum to give a cell density of 2×10^6 cells/ml and cultured in a plastic petri dish for cell culture. After 10 to 14 days of incubation, a puromycin-resistant cell colony was collected and confirmed its production of the G protein α-subunit proteins with an index of their mRNA level by conventional RT-PCR. Thus, a cell line capable of expressing the G protein α-subunit proteins was established. To the cells were gene transferred an expression vector for the sweet taste receptor protein T1R1, T1R2, or T1R3 in Example 2-2; or a coexpression vector for a pair of T1R1 and T1R2, T1R1 and T1R3, or T1R2 and T1R3 by conventional lipofection. The resulting cells were suspended in D-MEM supplemented with 1 mg/L of “PUROMYCIN”, 500 mg/L of “GENETICIN”, and 10% (v/v) of fetal calf serum and cultured in a plastic petri dish for cell culture. […]
The captioned reactivity test was conducted according to a conventional intracellular calcium ion assay: 293 Cells prepared in Example 3, capable of coexpressing the G protein α-subunits and the sweet taste receptor(s), were cultured in a plastic petri dish for cell culture until reaching its confluent phase. […] Two milliliters of the resultant cell suspension was injected into a glass cuvette, commercialized by Hitachi, Ltd., Tokyo, Japan, and analyzed on “HITACHI 650-40”, a fluorescence spectrophotometer commercialized by Hitachi, Ltd., Tokyo, Japan. […]

Row | SMILES | Influx of calcium ion | Influx of calcium ion (listed as sucrose)
1 | OC[C@H]1O[C@@](CO)(O[C@H]2O[C@H](CO)[C@@H](O)[C@H](O)[C@H]2O)[C@@H](O)[C@@H]1O [Sucrose, reference compound] | Positive | detected
2 | OC[C@H]1O[C@H](O[C@H]2O[C@H](CO)[C@@H](O)[C@H](O)[C@H]2O)[C@H](O)[C@@H](O)[C@@H]1O [Trehalose] | Positive | 
